Data reported in EP4745137A1 (Gluetacs Therapeutics (Shanghai) Co., Ltd., priority 2023, dated 2025).
Where two headings read alike, the source gives them in different places.

How the values were obtained:
WEE1 = target: T1, WEE1 (Homo sapiens, UniProt P30291+Q96SW2); test: Western-blot assay of substrate protein degradation in hPBMCs, WEE1; format: cell-based; conditions: 24 hours of compound treatment, compounds tested at 50 nM and 500 nM (concentration of the table not stated)
T1 construct: endogenous in cells; host or cells: hPBMCs (Milecell Biotechnologies)
T1 sequence (P30291 whole entry): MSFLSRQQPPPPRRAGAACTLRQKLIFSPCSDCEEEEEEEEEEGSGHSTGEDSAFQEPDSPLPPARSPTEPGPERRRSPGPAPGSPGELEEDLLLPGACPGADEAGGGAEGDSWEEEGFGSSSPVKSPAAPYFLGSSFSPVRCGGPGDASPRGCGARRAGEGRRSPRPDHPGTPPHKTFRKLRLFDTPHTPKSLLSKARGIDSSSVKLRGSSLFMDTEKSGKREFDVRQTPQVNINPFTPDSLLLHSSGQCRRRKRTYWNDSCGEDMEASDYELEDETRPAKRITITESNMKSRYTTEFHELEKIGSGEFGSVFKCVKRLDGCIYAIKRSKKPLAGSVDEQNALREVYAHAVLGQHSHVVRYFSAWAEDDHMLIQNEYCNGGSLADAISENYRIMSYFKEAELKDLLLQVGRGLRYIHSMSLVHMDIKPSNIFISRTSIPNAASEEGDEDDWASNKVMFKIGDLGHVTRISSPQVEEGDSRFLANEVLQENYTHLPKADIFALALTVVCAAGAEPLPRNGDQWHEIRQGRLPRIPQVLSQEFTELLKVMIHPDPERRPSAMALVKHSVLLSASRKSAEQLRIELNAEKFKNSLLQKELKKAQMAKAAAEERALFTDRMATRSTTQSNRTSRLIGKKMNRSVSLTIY
T1 sequence (Q96SW2 whole entry): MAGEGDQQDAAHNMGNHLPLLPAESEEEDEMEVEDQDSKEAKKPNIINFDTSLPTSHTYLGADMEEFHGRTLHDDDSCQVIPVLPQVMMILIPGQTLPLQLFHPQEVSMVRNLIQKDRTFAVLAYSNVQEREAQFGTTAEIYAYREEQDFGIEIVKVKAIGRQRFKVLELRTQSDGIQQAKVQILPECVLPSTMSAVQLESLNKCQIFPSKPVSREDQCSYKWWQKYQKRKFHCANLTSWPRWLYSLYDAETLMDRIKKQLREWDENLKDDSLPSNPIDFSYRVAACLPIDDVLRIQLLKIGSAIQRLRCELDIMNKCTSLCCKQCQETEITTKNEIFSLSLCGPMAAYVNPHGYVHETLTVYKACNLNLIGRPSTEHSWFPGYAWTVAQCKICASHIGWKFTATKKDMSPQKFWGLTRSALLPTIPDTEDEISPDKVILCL
T1 sequence (Q16531 whole entry partner): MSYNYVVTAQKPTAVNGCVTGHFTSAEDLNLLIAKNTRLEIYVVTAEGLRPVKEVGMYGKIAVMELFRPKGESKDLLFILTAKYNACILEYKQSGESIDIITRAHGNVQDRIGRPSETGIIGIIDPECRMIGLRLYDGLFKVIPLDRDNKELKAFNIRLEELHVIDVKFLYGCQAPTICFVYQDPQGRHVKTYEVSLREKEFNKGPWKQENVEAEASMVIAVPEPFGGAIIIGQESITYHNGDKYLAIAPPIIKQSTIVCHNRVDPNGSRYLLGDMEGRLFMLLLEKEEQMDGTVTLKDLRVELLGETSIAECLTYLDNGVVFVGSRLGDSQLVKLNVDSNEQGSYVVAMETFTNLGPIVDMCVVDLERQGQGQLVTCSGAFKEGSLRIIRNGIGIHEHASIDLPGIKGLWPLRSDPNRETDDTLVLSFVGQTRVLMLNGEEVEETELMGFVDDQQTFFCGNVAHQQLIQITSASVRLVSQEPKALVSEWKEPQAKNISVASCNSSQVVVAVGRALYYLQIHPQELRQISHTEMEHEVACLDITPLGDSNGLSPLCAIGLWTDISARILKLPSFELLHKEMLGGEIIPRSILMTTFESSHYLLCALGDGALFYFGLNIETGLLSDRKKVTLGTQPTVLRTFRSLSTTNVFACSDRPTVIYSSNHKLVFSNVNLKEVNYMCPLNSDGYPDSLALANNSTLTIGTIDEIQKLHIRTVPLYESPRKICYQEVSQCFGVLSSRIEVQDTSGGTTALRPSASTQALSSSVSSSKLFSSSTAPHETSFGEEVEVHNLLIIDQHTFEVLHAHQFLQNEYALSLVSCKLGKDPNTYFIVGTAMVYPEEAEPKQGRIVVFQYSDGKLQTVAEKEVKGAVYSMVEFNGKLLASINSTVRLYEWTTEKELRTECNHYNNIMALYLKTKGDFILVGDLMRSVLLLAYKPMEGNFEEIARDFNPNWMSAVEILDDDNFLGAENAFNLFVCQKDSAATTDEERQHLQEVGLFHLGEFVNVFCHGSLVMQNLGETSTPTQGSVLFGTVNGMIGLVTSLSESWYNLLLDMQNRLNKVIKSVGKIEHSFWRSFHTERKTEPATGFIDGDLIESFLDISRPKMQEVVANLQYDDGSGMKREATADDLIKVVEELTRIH

IKZF1 = target: T2, IKZF1 (Homo sapiens, UniProt Q13422+Q96SW2); test: Western-blot assay of substrate protein degradation in hPBMCs, IKZF1; format: cell-based; conditions: 24 hours of compound treatment, compounds tested at 50 nM and 500 nM (concentration of the table not stated)
T2 construct: endogenous in cells; host or cells: hPBMCs (Milecell Biotechnologies)
T2 sequence (Q13422 whole entry): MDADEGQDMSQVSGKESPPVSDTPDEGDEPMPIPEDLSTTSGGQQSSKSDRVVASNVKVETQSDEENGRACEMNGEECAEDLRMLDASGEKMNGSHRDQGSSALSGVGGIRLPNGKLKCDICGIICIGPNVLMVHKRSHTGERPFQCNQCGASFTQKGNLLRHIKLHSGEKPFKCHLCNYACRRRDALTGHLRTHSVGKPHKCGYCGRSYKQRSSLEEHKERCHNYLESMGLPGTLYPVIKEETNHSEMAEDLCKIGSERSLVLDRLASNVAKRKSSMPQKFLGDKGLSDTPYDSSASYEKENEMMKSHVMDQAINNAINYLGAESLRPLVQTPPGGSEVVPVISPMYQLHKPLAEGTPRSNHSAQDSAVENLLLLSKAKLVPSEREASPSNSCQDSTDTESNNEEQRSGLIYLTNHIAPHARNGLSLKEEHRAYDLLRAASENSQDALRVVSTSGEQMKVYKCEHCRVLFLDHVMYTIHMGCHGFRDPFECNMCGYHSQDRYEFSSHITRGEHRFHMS
T2 sequence (Q96SW2 whole entry): as the sequence (Q96SW2 whole entry) above
T2 sequence (Q16531 whole entry partner): as the sequence (Q16531 whole entry partner) above

IKZF2 = target: T3, IKZF2 (Homo sapiens, UniProt Q96SW2+Q9UKS7); test: Western-blot assay of substrate protein degradation in hPBMCs, IKZF2; format: cell-based; conditions: 24 hours of compound treatment, compounds tested at 50 nM and 500 nM (concentration of the table not stated)
T3 construct: endogenous in cells; host or cells: hPBMCs (Milecell Biotechnologies)
T3 sequence (Q9UKS7 whole entry): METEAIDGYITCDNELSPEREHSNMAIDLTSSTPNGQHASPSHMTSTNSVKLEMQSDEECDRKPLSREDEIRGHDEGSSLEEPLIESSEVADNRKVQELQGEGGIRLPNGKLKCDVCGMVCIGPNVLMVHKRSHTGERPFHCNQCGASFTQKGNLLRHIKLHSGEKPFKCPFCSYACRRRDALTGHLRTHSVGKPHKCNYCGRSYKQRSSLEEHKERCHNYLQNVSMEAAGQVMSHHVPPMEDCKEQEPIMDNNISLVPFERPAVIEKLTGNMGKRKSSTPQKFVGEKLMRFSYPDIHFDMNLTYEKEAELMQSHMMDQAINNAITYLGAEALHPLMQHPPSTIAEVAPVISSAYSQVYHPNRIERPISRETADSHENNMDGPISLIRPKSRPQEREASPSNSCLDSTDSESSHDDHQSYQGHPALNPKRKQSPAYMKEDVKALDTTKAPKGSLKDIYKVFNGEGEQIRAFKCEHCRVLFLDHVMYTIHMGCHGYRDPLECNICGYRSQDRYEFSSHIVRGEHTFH
T3 sequence (Q96SW2 whole entry): as the sequence (Q96SW2 whole entry) above
T3 sequence (Q16531 whole entry partner): as the sequence (Q16531 whole entry partner) above

IKZF3 = target: T4, IKZF3 (Homo sapiens, UniProt Q96SW2+Q9UKT9); test: Western-blot assay of substrate protein degradation in hPBMCs, IKZF3; format: cell-based; conditions: 24 hours of compound treatment, compounds tested at 50 nM and 500 nM (concentration of the table not stated)
T4 construct: endogenous in cells; host or cells: hPBMCs (Milecell Biotechnologies)
T4 sequence (Q9UKT9 whole entry): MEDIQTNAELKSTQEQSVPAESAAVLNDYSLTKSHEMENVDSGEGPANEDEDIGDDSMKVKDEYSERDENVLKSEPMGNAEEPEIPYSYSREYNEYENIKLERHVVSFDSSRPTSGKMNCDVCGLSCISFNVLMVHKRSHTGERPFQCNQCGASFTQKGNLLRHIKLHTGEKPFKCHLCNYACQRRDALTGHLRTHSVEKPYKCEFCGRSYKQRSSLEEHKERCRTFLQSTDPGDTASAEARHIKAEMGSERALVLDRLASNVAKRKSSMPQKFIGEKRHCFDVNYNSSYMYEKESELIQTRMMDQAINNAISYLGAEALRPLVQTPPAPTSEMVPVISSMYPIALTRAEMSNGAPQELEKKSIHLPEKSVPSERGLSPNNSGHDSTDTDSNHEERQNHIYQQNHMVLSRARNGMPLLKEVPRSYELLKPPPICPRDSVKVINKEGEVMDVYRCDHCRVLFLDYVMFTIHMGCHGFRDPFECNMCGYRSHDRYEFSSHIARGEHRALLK
T4 sequence (Q96SW2 whole entry): as the sequence (Q96SW2 whole entry) above
T4 sequence (Q16531 whole entry partner): as the sequence (Q16531 whole entry partner) above

CK1α = target: T5, CK1α (Homo sapiens, UniProt P48729+Q96SW2); test: Western-blot assay of substrate protein degradation in hPBMCs, CK1α; format: cell-based; conditions: 24 hours of compound treatment, compounds tested at 50 nM and 500 nM (concentration of the table not stated)
T5 construct: endogenous in cells; host or cells: hPBMCs (Milecell Biotechnologies)

GSPT1 = target: T6, GSPT1 (Homo sapiens, UniProt P15170+Q96SW2); test: Western-blot assay of substrate protein degradation in hPBMCs, GSPT1; format: cell-based; conditions: 24 hours of compound treatment, compounds tested at 50 nM and 500 nM (concentration of the table not stated)
T6 construct: endogenous in cells; host or cells: hPBMCs (Milecell Biotechnologies)
T6 sequence (P15170 whole entry): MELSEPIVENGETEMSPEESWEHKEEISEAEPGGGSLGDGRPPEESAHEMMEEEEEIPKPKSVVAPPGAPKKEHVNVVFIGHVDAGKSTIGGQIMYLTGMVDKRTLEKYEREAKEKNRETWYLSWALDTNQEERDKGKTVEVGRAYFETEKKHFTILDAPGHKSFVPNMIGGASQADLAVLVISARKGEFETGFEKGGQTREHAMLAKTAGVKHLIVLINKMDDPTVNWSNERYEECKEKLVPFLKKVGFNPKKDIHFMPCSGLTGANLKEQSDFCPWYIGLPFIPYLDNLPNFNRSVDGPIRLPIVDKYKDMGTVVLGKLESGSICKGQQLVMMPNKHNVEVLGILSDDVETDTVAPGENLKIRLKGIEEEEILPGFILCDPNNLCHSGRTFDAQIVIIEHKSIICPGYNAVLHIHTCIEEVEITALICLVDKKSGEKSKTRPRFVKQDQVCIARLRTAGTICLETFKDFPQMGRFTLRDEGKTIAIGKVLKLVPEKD
T6 sequence (Q96SW2 whole entry): as the sequence (Q96SW2 whole entry) above
T6 sequence (Q16531 whole entry partner): as the sequence (Q16531 whole entry partner) above

[1] = target: T7, human Cereblon WT GST-tagged protein (Homo sapiens, UniProt Q96SW2); test: CRBN-binding affinity by HTRF (CEREBLON BINDING kit)
T7 construct: purchased CISBIO 64BDCRBNPEH
T7 sequence (Q96SW2 whole entry): as the sequence (Q96SW2 whole entry) above

[2] = HTRF inhibitory activity, CEREBLON BINDING kit, read-out: HTRF IC50

SMILES	Weel substrate protein remaining % (WEE1)	IKZF 1 substrate protein remaining % (IKZF1)	IKZF2 substrate protein remaining % (IKZF2)	IKZF3 substrate protein remaining % (IKZF3)	CK1a substrate protein remaining % (CK1α)	GSPT1 substrate protein remaining % (GSPT1)	IC50 [1, 2] [nM]	IC50 [1] [nM]
O=C1CCC(N2Cc3cc(CN4CCC(n5c(=O)[nH]c6cc(F)ccc65)CC4)ccc3C2=O)C(=O)N1 (centres unmarked) [GT-04714, 3-(5-((4-(5-fluoro-2-oxo-2,3-dihydro-1H-benzo[d]imidazol-1-yl)piperidin-1-yl)methyl)-1-oxoisoindolin-2-yl)piperidine-2,6-dione]	A (0% ≤ substrate protein remaining % ≤ 80%)	A (0% ≤ substrate protein remaining % ≤ 80%)	A (0% ≤ substrate protein remaining % ≤ 80%)	A (0% ≤ substrate protein remaining % ≤ 80%)	A (0% ≤ substrate protein remaining % ≤ 80%)	A (0% ≤ substrate protein remaining % ≤ 80%)	500 to 1000	–
O=C1CCC(N2Cc3cc(CN4CCC(c5ccon5)CC4)ccc3C2=O)C(=O)N1 (centres unmarked) [GT-04715, 3-(5-((4-(isoxazol-3-yl)piperidin-1-yl)methyl)-1-oxoisoindolin-2-yl)piperidine-2,6-dione]	A (0% ≤ substrate protein remaining % ≤ 80%)	A (0% ≤ substrate protein remaining % ≤ 80%)	A (0% ≤ substrate protein remaining % ≤ 80%)	A (0% ≤ substrate protein remaining % ≤ 80%)	A (0% ≤ substrate protein remaining % ≤ 80%)	A (0% ≤ substrate protein remaining % ≤ 80%)	1500 to 1900	–
Cc1cc2c(C3CCN(Cc4ccc5c(c4)CN(C4CCC(=O)NC4=O)C5=O)CC3)ncnc2s1 (centres unmarked) [GT-04717, 3-(5-((4-(6-methylthieno[2,3-d]pyrimidin-4-yl)piperidin-1-yl)methyl)-1-oxoisoindolin-2-yl)piperidine-2,6-dione]	B (80%< substrate protein remaining %≤ 100%)	B (80%< substrate protein remaining %≤ 100%)	A (0% ≤ substrate protein remaining % ≤ 80%)	A (0% ≤ substrate protein remaining % ≤ 80%)	B (80%< substrate protein remaining %≤ 100%)	A (0% ≤ substrate protein remaining % ≤ 80%)	500 to 1000	–
O=C1CCC(N2Cc3cc(CN4CCN(c5ncc6ccsc6n5)CC4)ccc3C2=O)C(=O)N1 (centres unmarked) [GT-04725, 3-(1-oxo-5-((4-(thieno[2,3-d]pyrimidin-2-yl)piperazin-1-yl)methyl)isoindolin-2-yl)piperidine-2,6-dione]	B (80%< substrate protein remaining %≤ 100%)	B (80%< substrate protein remaining %≤ 100%)	B (80%< substrate protein remaining %≤ 100%)	B (80%< substrate protein remaining %≤ 100%)	B (80%< substrate protein remaining %≤ 100%)	A (0% ≤ substrate protein remaining % ≤ 80%)	< 500	–
Cc1ccsc1C1=CCN(Cc2cccc3c2CN(C2CCC(=O)NC2=O)C3=O)CC1 (centres unmarked) [GT-04728, 3-(4-((4-(3-methylthiophen-2-yl)-3,6-dihydropyridin-1(2H)-yl)methyl)-1-oxoisoindolin-2-yl)piperidine-2,6-dione]	B (80%< substrate protein remaining %≤ 100%)	B (80%< substrate protein remaining %≤ 100%)	B (80%< substrate protein remaining %≤ 100%)	B (80%< substrate protein remaining %≤ 100%)	B (80%< substrate protein remaining %≤ 100%)	A (0% ≤ substrate protein remaining % ≤ 80%)	1000 to 1500	–
O=C1CCC(N2Cc3cc(CN4CCC(N5C(=O)COc6cc(F)ccc65)CC4)ccc3C2=O)C(=O)N1 (centres unmarked) [GT-04860, 3-(5-((4-(7-fluoro-3-oxo-2,3-dihydro-4H-benzo[b][1,4]oxazin-4-yl)piperidin-1-yl)methyl)-1-oxoisoindolin-2-yl)piperidine-2,6-dione]	B (80%< substrate protein remaining %≤ 100%)	A (0% ≤ substrate protein remaining % ≤ 80%)	A (0% ≤ substrate protein remaining % ≤ 80%)	A (0% ≤ substrate protein remaining % ≤ 80%)	B (80%< substrate protein remaining %≤ 100%)	A (0% ≤ substrate protein remaining % ≤ 80%)	–	< 500
O=C1CCC(N2Cc3cc(CN4CCN(c5ncnc6sc(Br)cc56)CC4)ccc3C2=O)C(=O)N1 (centres unmarked) [GT-04861, 3-(5-((4-(6-bromothieno[2,3-d]pyrimidin-4-yl)piperazin-1-yl)methyl)-1-oxoisoindolin-2-yl)piperidine-2,6-dione]	A (0% ≤ substrate protein remaining % ≤ 80%)	A (0% ≤ substrate protein remaining % ≤ 80%)	A (0% ≤ substrate protein remaining % ≤ 80%)	A (0% ≤ substrate protein remaining % ≤ 80%)	A (0% ≤ substrate protein remaining % ≤ 80%)	A (0% ≤ substrate protein remaining % ≤ 80%)	< 500	–
O=C1CCC(N2Cc3cc(CN4CCN(c5ncnc6sc(-c7ccccc7)cc56)CC4)ccc3C2=O)C(=O)N1 (centres unmarked) [GT-04862, 3-(1-oxo-5-((4-(6-phenylthieno[2,3-d]pyrimidin-4-yl)piperazin-1-yl)methyl)isoindolin-2-yl)piperidine-2,6-dione]	A (0% ≤ substrate protein remaining % ≤ 80%)	A (0% ≤ substrate protein remaining % ≤ 80%)	A (0% ≤ substrate protein remaining % ≤ 80%)	A (0% ≤ substrate protein remaining % ≤ 80%)	A (0% ≤ substrate protein remaining % ≤ 80%)	A (0% ≤ substrate protein remaining % ≤ 80%)	< 500	–
